Data published in patent publication US7884083B2, “Immunomodulatory compositions, methods of making, and methods of use thereof” (Dynavax Technologies Corporation, priority 2002, dated 2011).

Legend:
[1] = dodecyl spacer measured as dialcohol precursor; cited from earlier work
[2] = tested on: human peripheral blood lymphocytes (PBMCs); assay: hPBMC assay: IFN-γ and IFN-α production by human PBMCs (ELISA); format: cell-based; conditions: for IFN-γ/α-enhancing activity in comparison to PMXB or CLN: in words, Table 10 experiment; for immunomodulatory activity in the hPBMC assay: result in words
[3] = tested on: plasmacytoind dendritic cells (PDCs) of human PBMCs; assay: Intracellular staining and FACS analysis of IFN-α production from PDCs; format: cell-based; conditions: double-staining cells as percentage of total PBMCs, 20 μg/mL oligonucleotide, 100 μg/mL PMXB, six hours
Procedure: Intracellular staining assays and FACS analysis were used to examine IFN-α production from the plasmacytoind dendritic cells (PDCs) of human PBMCs. […] For these assays, the IMC or -ISS and the polymyxin were added separately to the PBMC cell culture which contained human serum albumin. […] After the six hours, the cells were stained with a fluorescently labeled PDC marker, anti-BCDA-2 labeled with FITC, and with anti-IFN-α labeled with PE. FACS analysis of the labeled cells was performed.

[4] = hydrophobic/lipophilic balance value; cited from earlier work
[5] = Donor 28232, no Time given, 20 μg/ml oligonucleotide, 100 μg/ml polymyxin
[6] = Donor 28233, no Time given, 20 μg/ml oligonucleotide, 100 μg/ml polymyxin
[7] = Mean (Table 6), no Time given, 20 μg/ml oligonucleotide, 100 μg/ml polymyxin
[8] = Donor 28212, Controls, 20 μg/ml oligonucleotide, 100 μg/ml polymyxin
[9] = Donor 28213, Controls, 20 μg/ml oligonucleotide, 100 μg/ml polymyxin
[10] = Donor # 20, 20 μg/ml oligonucleotide, 100 μg/ml PMXB, 24 hours
[11] = Donor # 37, 20 μg/ml oligonucleotide, 100 μg/ml PMXB, 24 hours
[12] = Donor # 75, 20 μg/ml oligonucleotide, 100 μg/ml PMXB, 24 hours
[13] = Donor # 86, 20 μg/ml oligonucleotide, 100 μg/ml PMXB, 24 hours
[14] = Donor # 87, 20 μg/ml oligonucleotide, 100 μg/ml PMXB, 24 hours
[15] = Donor # 88, 20 μg/ml oligonucleotide, 100 μg/ml PMXB, 24 hours
[16] = Donor # 89, 20 μg/ml oligonucleotide, 100 μg/ml PMXB, 24 hours
[17] = Donor # 90, 20 μg/ml oligonucleotide, 100 μg/ml PMXB, 24 hours
[18] = Donor # 91, 20 μg/ml oligonucleotide, 100 μg/ml PMXB, 24 hours
[19] = Donor # 95, 20 μg/ml oligonucleotide, 100 μg/ml PMXB, 24 hours
[20] = Donor # 96, 20 μg/ml oligonucleotide, 100 μg/ml PMXB, 24 hours
[21] = Donor # 97, 20 μg/ml oligonucleotide, 100 μg/ml PMXB, 24 hours
[22] = Mean (Table 4), Controls, 20 μg/ml oligonucleotide, 100 μg/ml polymyxin
[23] = Mean of donors (Table 2), 20 μg/ml oligonucleotide, 100 μg/ml PMXB, 24 hours
[24] = Table 3, Donor 1, PMXB 100 μg/ml, AMTB 10 μg/ml, serum containing medium
[25] = Table 3, Donor 2, PMXB 100 μg/ml, AMTB 10 μg/ml, serum containing medium
[26] = Table 3, Mean, PMXB 100 μg/ml, AMTB 10 μg/ml, serum containing medium
[27] = Table 9, Mean, 20 μg/ml oligonucleotide, 100 μg/ml polymyxin
[28] = Table 9, donor 149, 20 μg/ml oligonucleotide, 100 μg/ml polymyxin
[29] = Table 9, donor 208, 20 μg/ml oligonucleotide, 100 μg/ml polymyxin
[30] = Donor 198, no Time given, 20 μg/ml oligonucleotide
[31] = Donor 199, no Time given, 20 μg/ml oligonucleotide
[32] = Donor # 9, 20 μg/ml oligonucleotide, 100 μg/ml PMXB, 24 hours
[33] = Donor # 94, 20 μg/ml oligonucleotide, 100 μg/ml PMXB, 24 hours
[34] = Mean (Table 5), no Time given, 20 μg/ml oligonucleotide
[35] = Table 10, donor 1, 20 μg/ml oligonucleotide, 100 μg/ml polymyxin derivative added separately, 24 hours
[36] = Table 10, donor 2, 20 μg/ml oligonucleotide, 100 μg/ml polymyxin derivative added separately, 24 hours
[37] = Table 10, donor 3, 20 μg/ml oligonucleotide, 100 μg/ml polymyxin derivative added separately, 24 hours
[38] = Table 10, donor 4, 20 μg/ml oligonucleotide, 100 μg/ml polymyxin derivative added separately, 24 hours
[39] = Table 10, donor 5, 20 μg/ml oligonucleotide, 100 μg/ml polymyxin derivative added separately, 24 hours
[40] = Table 10, donor 6, 20 μg/ml oligonucleotide, 100 μg/ml polymyxin derivative added separately, 24 hours
[41] = Table 10, mean of 6 donors, 20 μg/ml oligonucleotide, 100 μg/ml polymyxin derivative added separately, 24 hours

Question: For OCCCCCCCCCCCCO [1,12-dihydroxydodecane], which solubility [1] is on record?
Answer: < 5 mg/mL

Question: Which “IFN-γ/α-enhancing activity in comparison to PMXB or CLN” value [2] does the source give for colistin methanesulfonate [CMS] here?
Answer: substantially reduced

Question: Which BCDA-2/IFN-α d.p. % ([3]; donor 1) does the source give for “5′-TGCTTGCAAGCTTGCAAGCA-3′ (listed as DNA, chemistry not given here) [−ISS SEQ ID NO: 38, reference compound]” here?
Answer: 0.00%

Question: What about the BCDA-2/IFN-α d.p. % ([3]; donor 2) of the same molecule?
Answer: 0.00%

Question: What about the BCDA-2/IFN-α d.p. % ([3]; mean) of the same molecule?
Answer: 0.00%

Question: Which IFN-Υ [2, 5] does the source give for “polyoxyethylene(20) sorbitan trioleate [Tween 85]” here?
Answer: 15 pg/mL

Question: And the IFN-α [2, 5]?
Answer: 66 pg/mL

Question: What about the IFN-Υ [2, 6] of the same molecule?
Answer: 6 pg/mL

Question: And the IFN-α [2, 6]?
Answer: 55 pg/mL

Question: And the IFN-Υ [2, 7]?
Answer: 11 pg/mL

Question: And the IFN-α [2, 7]?
Answer: 60 pg/mL

Question: What about the HLB [4] of the same molecule?
Answer: 11

Question: Which HLB [4] does the source give for polyethylene glycol sorbitan monooleate here?
Answer: 15.4

Question: Which results are given for “5′-TCGTCGAACGTTCGAGATGAT-3′ [SEQ ID NO: 39]”?
Answer: BCDA-2/IFN-α d.p. % ([3]; donor 1): 0.08%; BCDA-2/IFN-α d.p. % ([3]; donor 2): 0.14%; BCDA-2/IFN-α d.p. % ([3]; mean): 0.11%

Question: What does the source list for Polymyxin B [PMXB]?
Answer: IFN-α [2, 8]: 268 pg/mL; IFN-γ [2, 8]: 5 pg/mL; IFN-α [2, 9]: 213 pg/mL; IFN-γ [2, 9]: 4 pg/mL; IFN-Υ [2, 5]: 8 pg/mL; IFN-α [2, 5]: 16 pg/mL; IFN-Υ [2, 6]: 7 pg/mL; IFN-α [2, 6]: 84 pg/mL; IFN-γ [2, 10]: 20 pg/mL; IFN-α [2, 11]: 0 pg/mL; IFN-γ [2, 11]: 228 pg/mL; IFN-γ [2, 12]: 6 pg/mL; IFN-α [2, 13]: 353 pg/mL; IFN-γ [2, 13]: 23 pg/mL; IFN-α [2, 14]: 326 pg/mL; IFN-γ [2, 14]: 33 pg/mL; IFN-α [2, 15]: 33 pg/mL; IFN-γ [2, 15]: 112 pg/mL; IFN-α [2, 16]: 9 pg/mL; IFN-γ [2, 16]: 3 pg/mL; IFN-α [2, 17]: 0 pg/mL; IFN-γ [2, 17]: 0 pg/mL; IFN-α [2, 18]: 0 pg/mL; IFN-γ [2, 18]: 47 pg/mL; IFN-α [2, 19]: 0 pg/mL; IFN-γ [2, 19]: 17 pg/mL; IFN-γ [2, 20]: 55 pg/mL; IFN-γ [2, 21]: 21 pg/mL; IFN-α [2, 22]: 241 pg/mL; IFN-γ [2, 22]: 5 pg/mL; IFN-Υ [2, 7]: 7 pg/mL; IFN-α [2, 7]: 50 pg/mL; IFN-α [2, 23]: 90 pg/mL; IFN-γ [2, 23]: 47 pg/mL; IFN-α [2, 24]: 1 pg/mL; IFN-γ [2, 24]: 23 pg/mL; IFN-α [2, 25]: 0 pg/mL; IFN-γ [2, 25]: 6 pg/mL; IFN-α [2, 26]: 0 pg/mL; IFN-γ [2, 26]: 15 pg/mL; IFN-Υ [2, 27]: 127 pg/mL; IFN-α [2, 27]: 32 pg/mL; IFN-Υ [2, 28]: 195 pg/mL; IFN-α [2, 28]: 32 pg/mL; IFN-Υ ([2]; Table 9, donor 206, 20 μg/ml oligonucleotide, 100 μg/ml polymyxin): 14 pg/mL; IFN-Υ [2, 29]: 171 pg/mL; IFN-α [2, 29]: 32 pg/mL; IFN-α ([2]; Table 9, donor 209, 20 μg/ml oligonucleotide, 100 μg/ml polymyxin): 32 pg/mL; immunomodulatory activity in the hPBMC assay [2]: no immunomodulatory activity on its own

Question: Which “IFN-γ/α-enhancing activity in comparison to PMXB or CLN” value [2] does the source give for polymyxin B nonapeptide [PMXB-9] here?
Answer: substantially reduced

Question: What does the source list for “5′-TGACTGTGAACCTTAGAGATGA-3′ (DNA, all phosphorothioate, methylation of C not given here) [−ISS]”?
Answer: IFN-α [2, 30]: 151 pg/mL; IFN-γ [2, 30]: 5 pg/mL; IFN-α [2, 31]: 279 pg/mL; IFN-γ [2, 31]: 18 pg/mL; IFN-α [2, 8]: 225 pg/mL; IFN-γ [2, 8]: 5 pg/mL; IFN-α [2, 9]: 156 pg/mL; IFN-γ [2, 9]: 7 pg/mL; IFN-α [2, 32]: 0 pg/mL; IFN-γ [2, 32]: 0 pg/mL; IFN-γ [2, 10]: 4 pg/mL; IFN-α [2, 11]: 0 pg/mL; IFN-γ [2, 11]: 5 pg/mL; IFN-γ [2, 12]: 1 pg/mL; IFN-α [2, 13]: 15 pg/mL; IFN-γ [2, 13]: 12 pg/mL; IFN-α [2, 14]: 0 pg/mL; IFN-γ [2, 14]: 12 pg/mL; IFN-α [2, 15]: 19 pg/mL; IFN-γ [2, 15]: 70 pg/mL; IFN-α [2, 16]: 17 pg/mL; IFN-γ [2, 16]: 7 pg/mL; IFN-α [2, 17]: 0 pg/mL; IFN-γ [2, 17]: 0 pg/mL; IFN-α [2, 18]: 0 pg/mL; IFN-γ [2, 18]: 30 pg/mL; IFN-α [2, 33]: 0 pg/mL; IFN-γ [2, 33]: 0 pg/mL; IFN-α [2, 19]: 0 pg/mL; IFN-γ [2, 19]: 4 pg/mL; IFN-γ [2, 20]: 9 pg/mL; IFN-γ [2, 21]: 5 pg/mL; IFN-α [2, 22]: 191 pg/mL; IFN-γ [2, 22]: 6 pg/mL; IFN-α [2, 34]: 215 pg/mL; IFN-γ [2, 34]: 12 pg/mL; IFN-α [2, 23]: 5 pg/mL; IFN-γ [2, 23]: 11 pg/mL; IFN-α [2, 24]: 3 pg/mL; IFN-γ [2, 24]: 1 pg/mL; IFN-α [2, 25]: 0 pg/mL; IFN-γ [2, 25]: 0 pg/mL; IFN-α [2, 26]: 1 pg/mL; IFN-γ [2, 26]: 0 pg/mL; IFN-α [2, 35]: 52 pg/mL; IFN-γ [2, 35]: 2 pg/mL; IFN-α [2, 36]: 52 pg/mL; IFN-γ [2, 36]: 2 pg/mL; IFN-α [2, 37]: 52 pg/mL; IFN-γ [2, 37]: 2 pg/mL; IFN-α [2, 38]: 52 pg/mL; IFN-γ [2, 38]: 2 pg/mL; IFN-α [2, 39]: 26 pg/mL; IFN-γ [2, 39]: 10 pg/mL; IFN-α [2, 40]: 26 pg/mL; IFN-γ [2, 40]: 2 pg/mL; IFN-α [2, 41]: 43 pg/mL; IFN-γ [2, 41]: 3 pg/mL

Question: With C[C@@H]1[C@H](O)[C@@H](C)/C=C/C=C/C=C/C=C/C=C/C=C/C=C/[C@H](O[C@@H]2O[C@H](C)[C@@H](O)[C@H](N)[C@@H]2O)C[C@@H]2O[C@](O)(C[C@@H](O)C[C@@H](O)[C@H](O)CC[C@@H](O)C[C@@H](O)CC(=O)O[C@H]1C)C[C@H](O)[C@H]2C(=O)O [AMTB, amphotericin B] as the molecule, how does the IFN-α [2, 24] read?
Answer: 0 pg/mL

Question: What about the IFN-γ [2, 24] of the same molecule?
Answer: 0 pg/mL

Question: And the IFN-α [2, 25]?
Answer: 0 pg/mL

Question: What about the IFN-γ [2, 25] of the same molecule?
Answer: 0 pg/mL

Question: And the IFN-α [2, 26]?
Answer: 0 pg/mL

Question: And the IFN-γ [2, 26]?
Answer: 0 pg/mL

Question: What about the “immunomodulatory activity in the hPBMC assay” value [2] of the same molecule?
Answer: no activity on its own
